Experimental data taken from patent US20210299193A1, “SYNBIOTIC COMPOSITION FOR IMPROVING IMMUNE RESPONSE AND ANTIOXIDANT CAPACITY DURING AGING AND A PROCESS FOR THE PREPARATION THEREOF” (COUNCIL OF SCIENTIFIC & INDUSTRIAL RESEARCH, priority 2018, published 2021).

Key:
[1] = system: probiotic bacteria (Lactobacillus species); experiment: Effect of EGCG on growth of probiotic bacteria (OD 600 nm); format: cell-based; details: 0.1% EGCG in media, vs control without EGCG
Excerpt: (§1) FIG. 1. Effect of EGCG on growth of probiotic and pathogenic bacterial species. The growth was monitored by inoculating a 5% inoculum of respective bacterial species into media containing 0.1% of EGCG. Growth was compared to that of control (without EGCG) to determine the influence of EGCG by spectrophotometric method (600 nm). Lactobacillus rhamnosus (LR); Lactobacillus fermentum (LF); Lactobacillus planatarum (LP); Escherichia coli (EC; MTCC 43); Salmonella typhi (ST; MTCC 733); Pseudomonas aeruginosa (PS; MTCC 424); Staphylococcus aureus (SA; MTCC 96); Klebsiella pneumoniae (K; MTCC 109); Shigella flexneri (SF; MTCC 1457); Vibrio cholera (VC; MTCC 3904).
(§2) To test prebiotic efficacy, the effect of EGCG on growth of probiotic bacteria (Lactobacillus species) and pathogenic bacteria [Escherichia coli (EC); Salmonella typhi (ST); Pseudomonas (PS); Staphylococcus aureus (SA); Klebsiella (K); Shigella flexneri (SF); Vibrio cholera (VC)] was assessed. The probiotic bacteria were isolated, identified and characterized while the pathogenic bacteria were procured from MTCC, Chandigarh.

[2] = system: pathogenic bacteria; experiment: Effect of EGCG on growth of pathogenic bacteria (OD 600 nm); format: cell-based; details: 0.1% EGCG in media, vs control without EGCG
Excerpt: as §1, §2

[3] = system: splenocytes; experiment: Flow cytometric analysis of splenocyte T cell sub-populations and activation status in aging animals; format: in vivo, swiss albino mice; details: 16 months old mice, oral supplementation 30 days
Description: The probiotic Lactobacillus, EGCG or a combination of the two were orally administered to aged animals for 31 days before sacrificing and subsequent analysis of various immune and oxidative stress associated parameters.
Effect of synbiotics supplementation on T cells sub-population of aging animals. Animals were fed with respective diets for 31 days following which splenocytes were analyzed by flow cytometry. (A) %CD3+ cells (B) %NK cells and (C) %NKT cells. Bars with different letter indicate significant difference at p<0.05.
Effect of synbiotics supplementation on activation status of T cells sub-population of aging animals. Animals were fed with respective diets for 31 days following which splenocytes were analyzed by flow cytometry. (A) Activated T cells (B) Activated NK cells and (C) Activated NKT cells. Bars with different letter indicate significant difference at p<0.05.
The synbiotic composition of EGCG and probiotic Lactobacillus sp was assessed for effects on cellular immune response using aging murine model. Animals (16 months old) were randomized into four groups of six mice each: 1 control group and 3 experimental groups comprising of either only EGCG (PRE), probiotic Lactobacillus sp (PRO) or a combination of both (SYN). All animals were fed on commercially available pelleted mice chow (Golden feeds, New Delhi, India) and water ad libitum. The experimental animal groups were each supplemented with EGCG (@100 mg/kg/animal/day), probiotic Lactobacilli sp (10^8 cfu/ml) or a combination of both above (synbiotic) respectively for 30 consecutive days. At the end of the feeding regimen, the animals were sacrificed for various immunological and antioxidative analysis.

O=C(O[C@@H]1Cc2c(O)cc(O)cc2O[C@@H]1c1cc(O)c(O)c(O)c1)c1cc(O)c(O)c(O)c1 [EGCG, Epigallocatechin gallate]
average decrease in growth of probiotics ([1]; 5% inoculum, average over probiotic species): 14.05% | decrease in growth of probiotics, Max ([1]; maximum among probiotic species): 31% | decrease in growth of probiotics, Min ([1]; minimum among probiotic species): 1.4% | average growth inhibition of pathogens ([2]; 5% inoculum, average over all pathogens): 52.05% | growth inhibition of pathogens, Max ([2]; maximum among pathogens): 89.88% | growth inhibition of pathogens, Min ([2]; minimum among pathogens): 32.7% | natural killer T cells (NKT) subpopulation [3]: no significant difference | activation of NK cells ([3]; vs control group): decrease | activation status of NKT cells ([3]; vs control group): no changes | numbers of natural killer cells (NK) ([3]; vs control group): appeared to decrease
